Where “and” joins values, the source holds several entries; their conditions need not be identical. Equal entries are not always repeated.
Conditions: 283.14 K, Liquid, Vibrating tube method

CCCCCCC(=O)OCC(COC(=O)CCCCCC)(COC(=O)CCCCCC)COC(=O)CCCCCC [pentaerythritol tetraheptanoate]
Conditions	mass density
99.9 kPa	986 kg/m3
100.4 kPa	985.9 kg/m3 and 986 kg/m3
100.6 kPa	985.8 kg/m3
100.8 kPa	985.9 kg/m3
100.9 kPa	985.9 kg/m3
104.1 kPa	985.9 kg/m3
108.1 kPa	985.9 kg/m3
116.6 kPa	986 kg/m3
124.9 kPa	986 kg/m3
130.8 kPa	986 kg/m3
135.4 kPa	985.9 kg/m3
142 kPa	985.9 kg/m3
146.3 kPa	986 kg/m3
150.6 kPa	986 kg/m3
154.5 kPa	986 kg/m3
158.5 kPa	986 kg/m3
164.2 kPa	986 kg/m3
168.9 kPa	985.9 kg/m3
174.6 kPa	986 kg/m3
181.1 kPa	986 kg/m3
189.8 kPa	986 kg/m3
198.1 kPa	986 kg/m3
208.7 kPa	986 kg/m3
218.8 kPa	986 kg/m3
231 kPa	985.9 kg/m3
246.9 kPa	986 kg/m3
262.2 kPa	986 kg/m3
279.6 kPa	985.9 kg/m3
304.3 kPa	985.9 kg/m3
328.1 kPa	986 kg/m3
354.9 kPa	986 kg/m3
383.4 kPa	986.2 kg/m3
410.5 kPa	986.1 kg/m3
428.6 kPa	986.2 kg/m3
445.6 kPa	986.1 kg/m3
459.5 kPa	986.2 kg/m3
470.3 kPa	986.1 kg/m3
483.1 kPa	986.2 kg/m3
493.7 kPa	986.2 kg/m3
504.3 kPa	986.1 kg/m3
518.6 kPa	986.2 kg/m3
531.3 kPa	986.2 kg/m3
543.6 kPa	986.2 kg/m3
560.1 kPa	986.2 kg/m3
574.5 kPa	986.2 kg/m3
588.8 kPa	986.2 kg/m3
607.2 kPa	986.2 kg/m3
623.7 kPa	986.2 kg/m3
641.4 kPa	986.2 kg/m3
659.1 kPa	986.3 kg/m3
682.8 kPa	986.3 kg/m3
703.5 kPa	986.3 kg/m3
725 kPa	986.2 kg/m3
748.3 kPa	986.2 kg/m3
777.3 kPa	986.4 kg/m3
803.3 kPa	986.3 kg/m3
830.4 kPa	986.3 kg/m3
857.2 kPa	986.4 kg/m3
881.9 kPa	986.4 kg/m3
894.4 kPa	986.4 kg/m3
910.2 kPa	986.5 kg/m3
922.9 kPa	986.5 kg/m3
936.1 kPa	986.4 kg/m3
950.3 kPa	986.3 kg/m3
964.4 kPa	986.4 kg/m3
981.7 kPa	986.3 kg/m3
997.4 kPa	986.4 kg/m3
1013.2 kPa	986.5 kg/m3
1029.5 kPa	986.4 kg/m3
1046.2 kPa	986.4 kg/m3
1066 kPa	986.6 kg/m3
1084 kPa	986.4 kg/m3
1102.6 kPa	986.5 kg/m3
1119.8 kPa	986.5 kg/m3
1142.7 kPa	986.6 kg/m3
1162 kPa	986.6 kg/m3
1186.3 kPa	986.5 kg/m3
1207.3 kPa	986.5 kg/m3
1229.4 kPa	986.6 kg/m3
1252.5 kPa	986.5 kg/m3
1277.3 kPa	986.7 kg/m3
1301.1 kPa	986.6 kg/m3
1329.6 kPa	986.7 kg/m3
1354.8 kPa	986.6 kg/m3
1386.2 kPa	986.6 kg/m3
1412.2 kPa	986.7 kg/m3
1440.9 kPa	986.6 kg/m3
1469.5 kPa	986.6 kg/m3
1505.1 kPa	986.6 kg/m3
1536 kPa	986.8 kg/m3
1568.8 kPa	986.7 kg/m3
1609.6 kPa	986.8 kg/m3
1645.7 kPa	986.8 kg/m3
1682.5 kPa	986.8 kg/m3
1719 kPa	986.8 kg/m3
1765.3 kPa	986.9 kg/m3
1804.9 kPa	986.9 kg/m3
1848.1 kPa	986.9 kg/m3
1898.4 kPa	986.8 kg/m3
1940.3 kPa	987 kg/m3
1966.1 kPa	986.9 kg/m3
1976.7 kPa	987 kg/m3
1988.3 kPa	987.1 kg/m3
2001 kPa	987 kg/m3
2021 kPa	987 kg/m3
2110 kPa	987 kg/m3
2201.2 kPa	987.1 kg/m3
2343.8 kPa	987.2 kg/m3
2462.5 kPa	987.4 kg/m3
2487.8 kPa	987.3 kg/m3
2506.9 kPa	987.3 kg/m3
